Experimental data as given in BindingDB's records for doi:10.1021/jm9508853 (University of Maryland, 2021).
Values belong to the molecule of their own block, whether it stands above or below them.

Key:
[1] = biological target: T1, B-cell lymphoma 6 protein (Homo sapiens, UniProt P41182); assay: Inhibition of human BCL6 BTP domain measured by fluorescence polarization assay
[2] = biological target: T1, B-cell lymphoma 6 protein; assay: Inhibition of human BCL6 BTP domain measured by TR-FRET assay
[3] = biological target: Casein kinase II subunit alpha 3 (Homo sapiens, UniProt Q8NEV1); assay: Inhibition of CK2 (unknown origin)
Chain of Casein kinase II subunit alpha 3 (Q8NEV1 whole entry, the tested form may be a part): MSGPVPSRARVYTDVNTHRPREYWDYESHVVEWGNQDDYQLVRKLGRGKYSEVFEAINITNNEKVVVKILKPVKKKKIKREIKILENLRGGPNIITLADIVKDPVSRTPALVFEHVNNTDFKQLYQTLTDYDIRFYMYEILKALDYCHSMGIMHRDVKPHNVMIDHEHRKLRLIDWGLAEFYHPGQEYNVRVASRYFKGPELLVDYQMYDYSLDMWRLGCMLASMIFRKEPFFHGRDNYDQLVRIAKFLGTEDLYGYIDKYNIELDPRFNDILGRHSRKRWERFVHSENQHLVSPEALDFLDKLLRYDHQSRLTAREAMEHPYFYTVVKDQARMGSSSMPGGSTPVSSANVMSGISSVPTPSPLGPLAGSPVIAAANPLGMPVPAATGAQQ

[4] = biological target: T1, B-cell lymphoma 6 protein; assay: Irreversible inhibition of human BCL6 BTP domain measured by TR-FRET assay
[5] = biological target: T1, B-cell lymphoma 6 protein; assay: Inhibition of human BCL6 BTP domain by ELISA assay
[6] = biological target: T1, B-cell lymphoma 6 protein; assay: Inhibition of human BCL6 BTP domain
[7] = biological target: T1, B-cell lymphoma 6 protein; assay: Binding affinity to human BCL6 BTP domain assessed as dissociation constant by SPR assay
[8] = biological target: T1, B-cell lymphoma 6 protein; assay: Inhibition of human BCL6 BTP domain measured by cell reporter assay
[9] = biological target: T1, B-cell lymphoma 6 protein; assay: Reversible inhibition of human BCL6 BTP domain measured by TR-FRET assay

SMILES: N#Cc1c(NCC2CC2)ccnc1Cl
- IC50 [1]: 207 µM

- IC50 [2]: 830 µM
SMILES: Nc1ncnc(Nc2ccccc2Cl)n1

- IC50 [3]: > 10 µM
SMILES: O=C1CCc2cc3cc(c2N1Cc1ccccc1)OC/C=C/CO[C@H]1C[C@@H](CO)N(C1)c1cc(n2ncc(Cl)c2n1)N3

- IC50 [3]: > 10 µM
SMILES: Cc1ccccc1CN1C(=O)CCc2cc3cc(c21)OC/C=C/CO[C@H]1C[C@@H](CO)N(C1)c1cc(n2ncc(Cl)c2n1)N3

SMILES: O=C1Cc2cc(Nc3nc(NCc4cccc(S(=O)(=O)F)c4)ncc3Cl)ccc2N1
- IC50 [4]: 0.251 µM

- IC50 [5]: 170 µM
SMILES: CC(=O)N[C@@H](Cc1c[nH]c2ccccc12)C(=O)N[C@@H](CCCNC(=N)N)C(=O)N[C@H](C(=O)N1CCC[C@H]1C(=O)O)C(C)C

- IC50 [6]: 0.012 µM
SMILES: CNC(=O)COc1cc2cc(Nc3nc(-n4nc(C)cc4C)ncc3Cl)ccc2n(C)c1=O

SMILES: Cn1c(=O)n(C)c2cc(Nc3cc(SCc4ccccc4)ncn3)ccc21
- IC50 [1]: 70 µM

- Kd [7]: 68 µM
SMILES: Nc1ncc(Cl)c(Nc2ccccc2)n1

- Kd [7]: 0.5 µM
- IC50 [2]: 0.37 µM
SMILES: N#Cc1cnn2c(Nc3ccc4c(c3)CCC(=O)N4)cc(N3CCC[C@H]3CO)nc12

- IC50 [6]: > 20 µM
SMILES: Cc1cc(C)n(-c2ncc(Cl)c(Nc3ccc(Cl)cc3)n2)n1

- Kd [7]: 690 µM
SMILES: CCNc1cc(-c2cccnc2)nc2ccnn12

SMILES: Cn1c(=O)n(CCC(C)(C)O)c2cc(Nc3ccnc(Cl)c3C#N)ccc21
- IC50 [2]: 0.86 µM

- Kd [7]: 0.0065 µM
- IC50 [2]: 0.0029 µM
- IC50 [3]: 0.64 µM
- IC50 [8]: 2 µM
SMILES: N#Cc1cnn2c3cc(nc12)N1C[C@H](C[C@H]1CO)OC/C=C/COc1cc(cc2c1NC(=O)CC2)N3

- IC50 [9]: 0.368 µM
SMILES: CNC(=O)COc1cc2cc(Nc3nc(NCc4cccc(S(C)(=O)=O)c4)ncc3Cl)cc(OC)c2n(C)c1=O

SMILES: Cn1c(=O)n(C)c2cc(Nc3ncccc3C#N)ccc21
- IC50 [1]: 86 µM

- Kd [7]: 1200 µM
SMILES: Nc1ncnc(Nc2ccccc2)n1 [Amanozine]

- IC50 [5]: 1500 µM
SMILES: CC(C)[C@H](NC(=O)[C@H](CCCNC(=N)N)NC(=O)[C@H](Cc1c[nH]c2ccccc12)NC(=O)[C@@H](N)CO)C(=O)N1CCC[C@H]1C(=O)O

SMILES: CNC(=O)COc1cc2cc(Nc3nc(NCc4cccc(S(=O)(=O)F)c4)ncc3Cl)cc(OC)c2n(C)c1=O
- IC50 [4]: 0.152 µM

SMILES: N#Cc1c(NCc2ccccc2)ccnc1Cl
- IC50 [1]: 120 µM

- Kd [7]: 1.1 µM
- IC50 [2]: 0.35 µM
SMILES: N#Cc1cnn2c(Nc3ccc4c(c3)CCC(=O)N4)cc(N3CCC[C@H]3CC(=O)O)nc12

- Kd [7]: 88 µM
SMILES: CN(c1ncccc1CNc1nc(Nc2ccc3c(c2)CC(=O)N3)ncc1C(F)(F)F)S(C)(=O)=O

- IC50 [5]: 620 µM
SMILES: CSCC[C@H](N)C(=O)N[C@@H](CO)C(=O)N[C@@H](Cc1c[nH]c2ccccc12)C(=O)N[C@@H](CCCNC(=N)N)C(=O)N[C@H](C(=O)N1CCC[C@H]1C(=O)O)C(C)C

- IC50 [3]: > 10 µM
SMILES: COc1cccc(CN2C(=O)CCc3cc4cc(c32)OC/C=C/CO[C@H]2C[C@@H](CO)N(C2)c2cc(n3ncc(Cl)c3n2)N4)c1
